One series has as its target T1, ENL YEATS domain (Homo sapiens, UniProt Q03111).
T1 construct: Biotinylated-ENL YEATS was immobilized onto SSA biosensors; biotin (biotinylated)
T1 sequence (Q03111 1-138 limits assumed): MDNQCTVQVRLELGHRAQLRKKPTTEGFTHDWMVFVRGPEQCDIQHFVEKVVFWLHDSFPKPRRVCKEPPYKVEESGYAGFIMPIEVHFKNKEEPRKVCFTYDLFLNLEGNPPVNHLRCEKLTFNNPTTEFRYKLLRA
Nature of the series: Biolayer interferometry (BLI). Conditions: biotinylated ENL YEATS on SSA biosensors, 1:1 model. It is filed as binding. How it is done: Superstreptavidin biosensors were first incubated in an assay buffer (20 mM Tris, pH 7.8, 300 mM NaCl, 0.05% Tween 20, 0.1% DMSO) for 15 min. Sensors were coated with 40–60 μg/mL of biotinylated ENL for 15 min at room temperature. Inhibitors were serially diluted across a 96-well plate in a volume of 200 μL. Association of samples to either ENL- or uncoated reference sensors was measured over 300 s and dissociation over 300 s with baseline measurements (buffer only) for 300 s. All assays were run with continuous 1000 rpm shaking. Data were analyzed using the OctetRED data analysis software with reference subtraction in which reference uncoated sensors and reference samples were subtracted. Then, global kinetic fit was performed for all sonogram curves with a 1:1 model to get KD values.
On the technique in general: Biolayer interferometry detects binding as a change in optical thickness at a sensor tip.

The subject of the next series is MOLM-13 cells. Nature of the series: Cell toxicity assay (CCK-8), MOLM-13. Format: cell-based. How it is done:
(§1) Approximately 1 × 10^4 JURKAT, MOLM-13, MV4-11 and HEK293T cells in RPMI 1640 (no phenol red) (100 μL) were added to a 96-well plate and treated with DMSO or a compound at indicated concentrations for 72 h or 8 days. Cell viability was measured using the CCK-8 kit (Abcam, ab228554) according to the manufacturer’s instructions.

In the next series the test system is MV4-11 cells. In words: Cell toxicity assay (CCK-8), MV4-11. It is filed as cell-based. As to conditions: Homo sapiens, MV4-11; 72 h treatment (superscript a). How it is done:
as §1

For the compound `CC(C)[C@H]1CCN1Cc1cc2cnc(NC(=O)c3ccc4nncn4c3)cc2[nH]1` [SR-C-107 (R), (R)-N-(2-((2-Isopropylazetidin-1-yl)methyl)-1H-pyrrolo[3,2-c]pyridin-6-yl)-[1,2,4]triazolo[4,3-a]pyridine-6-carboxamide], at ENL YEATS domain, the Kd (in general, a measure of binding affinity in units of concentration) was 144 nM.

For the compound `CC(C)C1CCN1Cc1ccc(CNC(=O)c2ccc3nncn3c2)cc1` (stereo not shown) [inhibitor 13], the IC50 (commonly the concentration needed to halve the response being measured) in the series with MOLM-13 cells (8 day treatment, n = 3, read-out: CC50 MOLM-13 (Cellular IC50, 8-days incubation)) was determined as 6.01 ± 0.83 µM. Further, the CC50 (in general, the concentration giving 50% cytotoxicity) in the series on MOLM-13 cells (Homo sapiens, MOLM-13, 72 h treatment (superscript a)) is 8.2 µM; with MV4-11 cells, 9.15 µM.

Source of the values: paper PMC11613437, “Prioritization of Eleven-Nineteen-Leukemia Inhibitors as Orally Available Drug Candidates for Acute Myeloid Leukemia” (Journal of Medicinal Chemistry, 2024).
